Results from article PMC9340777 (Journal of Medicinal Chemistry, 2022).

Assays:
[1] = Han Wistar, rat, pH 6.8
physchem [2] = conditions: buffer
in vitro [3] = conditions: male, Wistar Han, rat, tissue homogenate, pH 6.8
in vitro [4] = conditions: rat, pH 7.2, rat blood T1/2 (h) pH 7.2
physchem [5] = conditions: buffer, pH 6.5
[6] = rat, in vivo
[7] = pH 6.5

SMILES | half-life (physchem [2]; pH 6.5) [h] | half-life (physchem [2]; pH 7.4) [h] | half-life (in vitro [3]) [h] | half-life (physchem [5]) [h] | other results
CC(OC(=O)[C@@H](NC(=O)[C@@H](N)CCCCN)C(C)(C)C)OC(=O)N1CCC(OC(=O)C(O)(c2ccccc2)c2ccccc2)CC1.Cl.Cl (stereo partly drawn) [Compound 22, 1-(((S)-2-((S)-2,6-Diaminohexanamido)-3,3-dimethylbutanoyl)oxy)ethyl-4-(2-hydroxy-2,2-diphenylacetoxy)piperidine-1-carboxylate Dihydrochloride] | 186 ± 0.79 | 67 ± 0.23 | 2.5 ± 0.07 |  | rat blood T1/2 (h) pH 7.2: 0.1 ± 0.01 h; formation of monobasic intermediate (peptide amide bond hydrolysis) [1]: clearly showing the intermediate 15; half-life (in vitro [4]): 0.2 h
CC(OC(=O)[C@@H](N)C(C)(C)C)OC(=O)N1CCC(OC(=O)C(O)(c2ccccc2)c2ccccc2)CC1.Cl (stereo partly drawn) [Compound 15, 1-(((S)-2-Amino-3,3-dimethylbutanoyl)oxy)ethyl-4-(2-hydroxy-2,2-diphenylacetoxy)piperidine-1-carboxylate Hydrochloride] |  |  |  | 12.2 | 
CC(C)C[C@H](N)C(=O)OC(C)OC(=O)N1CCC(OC(=O)C(O)(c2ccccc2)c2ccccc2)CC1.Cl (stereo partly drawn) [Compound 13, 1-((L-Leucyl)oxy)ethyl-4-(2-hydroxy-2,2-diphenylacetoxy)piperidine-1-carboxylate Hydrochloride] |  |  |  | 5.09 | 
CC(OC(=O)[C@@H](N)CCCCN)OC(=O)N1CCC(OC(=O)C(O)(c2ccccc2)c2ccccc2)CC1.Cl.Cl (stereo partly drawn) [Compound 17, 1-((L-Lysyl)oxy)ethyl-4-(2-hydroxy-2,2-diphenylacetoxy)piperidine-1-carboxylate Dihydrochloride] | 3.9 ± 0.05 | 1.1 ± 0.02 |  |  | 
CC(OC(=O)[C@@H](N)C(C)C)OC(=O)N1CCC(OC(=O)C(O)(c2ccccc2)c2ccccc2)CC1.Cl (stereo partly drawn) [Compound 14, 1-((L-Valyl)oxy)ethyl-4-(2-hydroxy-2,2-diphenylacetoxy)piperidine-1-carboxylate Hydrochloride] |  |  |  | 15.8 | 
CC(OC(=O)[C@H](CCCCN)NC(=O)CCN)OC(=O)N1CCC(OC(=O)C(O)(c2ccccc2)c2ccccc2)CC1.Cl.Cl (stereo partly drawn) [Compound 28, 1-(((3-Aminopropanoyl)-L-lysyl)oxy)ethyl-4-(2-hydroxy-2,2-diphenylacetoxy)piperidine-1-carboxylate Dihydrochloride] | 102 ± 3.86 | 11.5 ± 0.73 | 0.7 ± 0.21 |  | 
CC(OC(=O)[C@@H](NC(=O)[C@@H](N)CCCCN)C(C)C)OC(=O)N1CCC(OC(=O)C(O)(c2ccccc2)c2ccccc2)CC1.Cl.Cl (stereo partly drawn) [Compound 25, 1-((L-Lysyl-L-valyl)oxy)ethyl-4-(2-hydroxy-2,2-diphenylacetoxy)piperidine-1-carboxylate Dihydrochloride] | 14.4 ± 1.68 | 4.4 ± 0.39 | 0.6 ± 0.09 |  | 
CC(OC(=O)CCCCN)OC(=O)N1CCC(OC(=O)C(O)(c2ccccc2)c2ccccc2)CC1.Cl (stereo not drawn) [Compound 6, 1-((5-Aminopentanoyl)oxy)ethyl-4-(2-hydroxy-2,2-diphenylacetoxy)piperidine-1-carboxylate Hydrochloride] |  |  |  | < 0.01 | 
CC(OC(=O)[C@H](NC(=O)[C@@H](N)CCCCN)C(C)C)OC(=O)N1CCC(OC(=O)C(O)(c2ccccc2)c2ccccc2)CC1.Cl.Cl (stereo partly drawn) [Compound 26, 1-((L-Lysyl-D-valyl)oxy)ethyl-4-(2-hydroxy-2,2-diphenylacetoxy)piperidine-1-carboxylate Dihydrochloride] | 8.7 ± 1.06 | 1.8 ± 0.2 | 3.4 ± 0.08 |  | half-life (in vitro [4]): 0.6 ± 0.07 h
CC[C@H](C)[C@H](N)C(=O)N[C@@H](CCCCN)C(=O)OC(C)OC(=O)N1CCC(OC(=O)C(O)(c2ccccc2)c2ccccc2)CC1.Cl.Cl (stereo partly drawn) [Compound 27, 1-((L-Isoleucyl-L-lysyl)oxy)ethyl-4-(2-hydroxy-2,2-diphenylacetoxy)piperidine-1-carboxylate Dihydrochloride] | 4.9 ± 0.06 | 0.9 ± 0.04 |  |  | 
CC(OC(=O)[C@H](NC(=O)[C@@H](N)CCCCN)C(C)(C)C)OC(=O)N1CCC(OC(=O)C(O)(c2ccccc2)c2ccccc2)CC1.Cl.Cl (stereo partly drawn) [Compound 23, 1-(((R)-2-((S)-2,6-Diaminohexanamido)-3,3-dimethylbutanoyl)oxy)ethyl-4-(2-hydroxy-2,2-diphenylacetoxy)piperidine-1-carboxylate Dihydrochloride] | 58.6 ± 4.91 | 36.6 ± 1.7 | 25.4 ± 1.94 |  | 23 in lung as % of the total dose delivered (calculated mass balance) ([6]; male, Sprague Dawley): 54%; ratio of 23 to 1 in lung ([6]; male, Sprague Dawley): ~27:1; total lung concentration of 23 ([6]; male, Sprague Dawley, 0.2 mg/kg): 31.2 µM; plasma concentration of 23 in words ([6]; 0.2 mg/kg): only a very low concentration; formation of monobasic intermediate (peptide amide bond hydrolysis) [1]: no evidence of intermediate 18; appearance in dosing formulation [7]: clear solution; half-life (in vitro [4]): 7 ± 0.82 h
CC(OC(=O)[C@@H]1CCCN1)OC(=O)N1CCC(OC(=O)C(O)(c2ccccc2)c2ccccc2)CC1.Cl (stereo partly drawn) [Compound 9, 1-((L-Prolyl)oxy)ethyl-4-(2-hydroxy-2,2-diphenylacetoxy)piperidine-1-carboxylate Hydrochloride] |  |  |  | 0.14 | 
CC[C@H](C)[C@H](N)C(=O)OC(C)OC(=O)N1CCC(OC(=O)C(O)(c2ccccc2)c2ccccc2)CC1.Cl (stereo partly drawn) [Compound 16, 1-((L-Isoleucyl)oxy)ethyl-4-(2-hydroxy-2,2-diphenylacetoxy)piperidine-1-carboxylate Hydrochloride] |  |  |  | 13.9 | 
